Laboratory results from the METLIN SMRT retention time set (Domingo-Almenara et al. 2019).

Assay: gradient 5% acetonitrile 3 min, to 50% in 2 min, to 85% in 15 min, held 3 min, 100 µL/min
Settings: column: Zorbax Extend-C18 2.1 x 50 mm; eluents: water / acetonitrile, 0.1% formic acid
Method in brief: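 Each retention time is based on an adduct peak selected computationally and verified by manual inspection. Measurements used HPLC–quadrupole time-of-flight mass spectrometry in positive and negative ionization mode on mixtures of ~100 pure standards. Chromatography ran on a Zorbax Extend-C18 column (2.1 × 50 mm, 1.8 μm) at 100 μL/min with water and acetonitrile, each containing 0.1% formic acid, and dead and dwell volumes of 40 μL and 900 μL.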

Row | RP-LC retention time [s] | Structure (SMILES)
1 | 577 | O=C([C@@H]1C[C@H](Oc2cccnc2)CN1C(=O)C1CCCC1)N1CCCC1
2 | 890 | O=C(CSc1nnc2c3sc(N4CCCC4)nc3ncn12)Nc1ccc(F)c(Cl)c1
3 | 746 | O=C(NCCCc1ccccc1)C(=O)NCc1n[nH]c(=O)c2ccccc12
4 | 554 | CN(C)C(CNC(=O)c1cc(=O)c2ccccc2o1)c1cn(C)c2ccccc12 (configuration not stated)
5 | 836 | CCOCc1nc(C2CCCN2S(=O)(=O)c2cccc3nsnc23)no1 (configuration not stated)
6 | 750 | O=C(NCc1csc(C2CCCN(C(=O)c3cc(F)ccc3Cl)C2)n1)C1CC1 (configuration not stated)
7 | 1200 | O=c1c2cc3c(cc2nc(SCc2nc(-c4ccc(F)cc4)no2)n1Cc1ccccc1)OCO3
8 | 774 | CCNC(=O)c1ccc2c(c1)n(Cc1ccccc1)c(=O)c1ccnn12
9 | 784 | O=C1Nc2ccccc2SC1C(=O)N1CCC(C(=O)N2CCN(c3ccccc3F)CC2)CC1 (configuration not stated)
10 | 659 | COc1ccc(Nc2cc(C(=O)N3CCCC3)nc3ccc(C)cc23)cc1
11 | 898 | CCc1ccc(CNC(=O)CC2CCN(C(=O)c3[nH]c(C)c(C)c3C)CC2)cc1
12 | 868 | COc1cc(CN(C(=O)c2ccc(OC(C)C)cc2)C2CCS(=O)(=O)C2)cc(OC)c1OC (configuration not stated)
13 | 1010 | COc1ccc(-c2c(C)nn3c(C)c(C(=O)OC(C)C)nnc23)cc1
14 | 1420 | COc1ccc(-c2ccnn2-c2ccc(SCc3ccc(C)cc3)nn2)cc1
15 | 725 | CN1C(=O)c2ccccc2Oc2ccc(C(=O)NC3CCCC3)cc21
16 | 745 | O=C(NC1CCCCC1)N1CCN(c2ncccc2-c2nnc(C3CC3)o2)CC1
17 | 606 | CCCc1nc(N2CCN(c3ccccn3)CC2)ncc1C(=O)O
18 | 653 | CCOC(=O)C1=C(CN2CC(C)CC(C)C2)NC(=O)NC1c1ccc(OC)cc1 (configuration not stated)

Row | RP-LC retention time [s] | Structure (SMILES)
19 | 1010 | COc1ccccc1-c1noc(Cn2cnc3c(cnn3-c3ccc(Cl)cc3)c2=O)n1
20 | 715 | CN(C)c1cccc(C(=O)N2CCN(C(=O)C3CC3c3ccc4c(c3)OCO4)CC2)c1 (configuration not stated)
21 | 605 | Nc1n[nH]c(-c2ccc(Cl)cc2)n1
22 | 1050 | O=C(CCn1nnc2cc(-c3noc(CCC4CCCC4)n3)ccc21)N1CCCC1
23 | 791 | CCc1onc(C)c1C1CCCN1C(=O)Nc1cccc(OC)c1 (configuration not stated)
24 | 681 | Cc1cc2n(n1)CCC(=O)N2CCCC(=O)N(C)Cc1ccccc1
25 | 909 | COC(=O)CCc1sc(Nc2ccc(OC)cc2)nc1-c1ccc(OC)cc1
26 | 1260 | CCOC(=O)c1c(C)oc2ncnc(Nc3cc(C)ccc3OC)c12
27 | 704 | CCOc1ccccc1NC(=O)Cn1c(=O)n(CC(N)=O)c(=O)c2oc3ccccc3c21
28 | 687 | O=C(COc1ccc(Cl)cc1Cl)N1CCN(c2ccc3nncn3n2)CC1
29 | 680 | Cc1ccc(C2=NC3(CCN(C(=O)c4ccn[nH]4)CC3)ON2)cc1
30 | 895 | CCN1c2ccc(Cl)cc2C(=O)NC12CCN(C(=O)Nc1ccccc1OC)CC2
31 | 704 | COc1ccccc1OCCNC(=O)Cn1nc2c(cc1=O)CCCC2
32 | 683 | CCOC(=O)c1cn[nH]c1S(=O)(=O)Nc1ccc2c(c1)OCCO2
33 | 1260 | COc1cccc(N2CCN(S(=O)(=O)c3cc(-c4cc(C(F)(F)F)on4)sc3C)CC2)c1
34 | 784 | Cc1ccc2[nH]cc(CCNC(=O)c3cc(-c4cccnc4)nc4ccccc34)c2c1
35 | 653 | CCCN1CC(Oc2ccc(-c3noc(C4CC4)n3)cc2)C1
36 | 768 | CCCN(CCc1ccccc1)C1CCc2c(O)cccc2C1 (configuration not stated)

Row | Structure (SMILES) | RP-LC retention time [s]
37 | COc1ccc2c(c1)C1(CCN(C(=O)Nc3ccccc3)C1)C(=O)N2 (configuration not stated) | 694
